Measured values from patent publication US20200060276A1, “THIAZOLE COMPOUND AND HERBICIDE” (OAT Agrio Co., Ltd., priority 2017, published 2020).

What was measured:
Type in all cases: in vivo
[1] = test system: Echinochloa crus-galli (L.) P. Beauv. var. formosensis Ohwi; experiment: Test for Herbicidal Effect in Flooding Treatment (#2), ECHDG at 2-2.5 leaf stage; details: flooding treatment at 2-2.5 leaf stage, dose 0.2 kg/ha, visual observation on day 21
Method in brief: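 Scoring is a visual 0–5 scale of growth inhibition (0 below 10%, 5 at 90% or more or full withering), taken 21 days after treatment in a glasshouse. Dose was 0.2 kg/ha, applied as acetone/Tween 80 aqueous solution onto flooded soil once seedlings reached the 2–2.5 leaf stage.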

Cyperus microiria = experiment: Test for Herbicidal Effect in Flooding Treatment (#1), CYMIC; details: flooding treatment at seeding, dose 2 kg/ha, visual observation on day 21
Method in brief: (§1)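 Visual scores from 0 (<10% inhibition) to 5 (≥90% or complete withering) were taken 21 days after treatment of glasshouse-grown plants. Seeds were sown in soil flooded for 24 h beforehand, and compound was applied dropwise onto the surface at 2 kg/ha as an acetone solution diluted in water with Tween 80.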

Monochoria vaginalis = experiment: Test for Herbicidal Effect in Flooding Treatment (#1), MONVA; details: flooding treatment at seeding, dose 2 kg/ha, visual observation on day 21
Method in brief: as §1

Scirpus juncoides = experiment: Test for Herbicidal Effect in Flooding Treatment (#1), SCIJU; details: flooding treatment at seeding, dose 2 kg/ha, visual observation on day 21
Method in brief: as §1

[2] = test system: Echinochloa crus-galli (L.) P. Beauv. var. formosensis Ohwi; experiment: Test for Herbicidal Effect in Flooding Treatment (#1), ECHDG; details: flooding treatment at seeding, dose 2 kg/ha, visual observation on day 21
Method in brief: as §1

## CCOc1ccc(CS(=O)(=O)c2ncc(Cl)s2)c(F)c1F [Compound 1C-99]
[1]
  ECHDG (2-2.5L) #2 herbicidal effect (growth inhibition grade): 5 (Growth inhibition effect is equal to or greater than 90%, or complete withering is achieved)
Cyperus microiria
  CYMIC #1 herbicidal effect (growth inhibition grade): 5 (Growth inhibition effect is equal to or greater than 90%, or complete withering is achieved)
Monochoria vaginalis
  MONVA #1 herbicidal effect (growth inhibition grade): 5 (Growth inhibition effect is equal to or greater than 90%, or complete withering is achieved)
Scirpus juncoides
  SCIJU #1 herbicidal effect (growth inhibition grade): 5 (Growth inhibition effect is equal to or greater than 90%, or complete withering is achieved)
[2]
  ECHDG #1 herbicidal effect (growth inhibition grade): 5 (Growth inhibition effect is equal to or greater than 90%, or complete withering is achieved)

## CCOc1c(F)cc(CS(=O)(=O)c2ncc(Cl)s2)cc1F [Compound 1C-104]
[1]
  ECHDG (2-2.5L) #2 herbicidal effect (growth inhibition grade): 1 (Growth inhibition effect is equal to or greater than 10%, and less than 30%)
Cyperus microiria
  CYMIC #1 herbicidal effect (growth inhibition grade): 5 (Growth inhibition effect is equal to or greater than 90%, or complete withering is achieved)
Monochoria vaginalis
  MONVA #1 herbicidal effect (growth inhibition grade): 5 (Growth inhibition effect is equal to or greater than 90%, or complete withering is achieved)
Scirpus juncoides
  SCIJU #1 herbicidal effect (growth inhibition grade): 5 (Growth inhibition effect is equal to or greater than 90%, or complete withering is achieved)
[2]
  ECHDG #1 herbicidal effect (growth inhibition grade): 5 (Growth inhibition effect is equal to or greater than 90%, or complete withering is achieved)

## CCOc1c(F)ccc(CS(=O)(=O)c2ncc(Cl)s2)c1F [Compound 1C-81]
[1]
  ECHDG (2-2.5L) #2 herbicidal effect (growth inhibition grade): 5 (Growth inhibition effect is equal to or greater than 90%, or complete withering is achieved)
Cyperus microiria
  CYMIC #1 herbicidal effect (growth inhibition grade): 5 (Growth inhibition effect is equal to or greater than 90%, or complete withering is achieved)
Monochoria vaginalis
  MONVA #1 herbicidal effect (growth inhibition grade): 5 (Growth inhibition effect is equal to or greater than 90%, or complete withering is achieved)
Scirpus juncoides
  SCIJU #1 herbicidal effect (growth inhibition grade): 5 (Growth inhibition effect is equal to or greater than 90%, or complete withering is achieved)
[2]
  ECHDG #1 herbicidal effect (growth inhibition grade): 5 (Growth inhibition effect is equal to or greater than 90%, or complete withering is achieved)

## CCOc1c(Cl)cc(F)cc1CS(=O)(=O)c1ncc(Cl)s1 [Compound 1C-22]
[1]
  ECHDG (2-2.5L) #2 herbicidal effect (growth inhibition grade): 5 (Growth inhibition effect is equal to or greater than 90%, or complete withering is achieved)
Cyperus microiria
  CYMIC #1 herbicidal effect (growth inhibition grade): 5 (Growth inhibition effect is equal to or greater than 90%, or complete withering is achieved)
Monochoria vaginalis
  MONVA #1 herbicidal effect (growth inhibition grade): 5 (Growth inhibition effect is equal to or greater than 90%, or complete withering is achieved)
Scirpus juncoides
  SCIJU #1 herbicidal effect (growth inhibition grade): 5 (Growth inhibition effect is equal to or greater than 90%, or complete withering is achieved)
[2]
  ECHDG #1 herbicidal effect (growth inhibition grade): 5 (Growth inhibition effect is equal to or greater than 90%, or complete withering is achieved)

## CCOc1c(F)cc(CS(=O)(=O)c2ncc(Cl)s2)cc1Cl [Compound 1C-105]
[1]
  ECHDG (2-2.5L) #2 herbicidal effect (growth inhibition grade): 2 (Growth inhibition effect is equal to or greater than 30%, and less than 50%)
Cyperus microiria
  CYMIC #1 herbicidal effect (growth inhibition grade): 5 (Growth inhibition effect is equal to or greater than 90%, or complete withering is achieved)
Monochoria vaginalis
  MONVA #1 herbicidal effect (growth inhibition grade): 5 (Growth inhibition effect is equal to or greater than 90%, or complete withering is achieved)
Scirpus juncoides
  SCIJU #1 herbicidal effect (growth inhibition grade): 5 (Growth inhibition effect is equal to or greater than 90%, or complete withering is achieved)
[2]
  ECHDG #1 herbicidal effect (growth inhibition grade): 5 (Growth inhibition effect is equal to or greater than 90%, or complete withering is achieved)

## CCOc1ccccc1CS(=O)(=O)c1ncc(Cl)s1 [Compound 1C-8]
[1]
  ECHDG (2-2.5L) #2 herbicidal effect (growth inhibition grade): 5 (Growth inhibition effect is equal to or greater than 90%, or complete withering is achieved)
Cyperus microiria
  CYMIC #1 herbicidal effect (growth inhibition grade): 5 (Growth inhibition effect is equal to or greater than 90%, or complete withering is achieved)
Monochoria vaginalis
  MONVA #1 herbicidal effect (growth inhibition grade): 5 (Growth inhibition effect is equal to or greater than 90%, or complete withering is achieved)
Scirpus juncoides
  SCIJU #1 herbicidal effect (growth inhibition grade): 5 (Growth inhibition effect is equal to or greater than 90%, or complete withering is achieved)
[2]
  ECHDG #1 herbicidal effect (growth inhibition grade): 5 (Growth inhibition effect is equal to or greater than 90%, or complete withering is achieved)

## CCOc1c(F)ccc(F)c1CS(=O)(=O)c1ncc(Cl)s1 [Compound 1C-27]
[1]
  ECHDG (2-2.5L) #2 herbicidal effect (growth inhibition grade): 5 (Growth inhibition effect is equal to or greater than 90%, or complete withering is achieved)
Cyperus microiria
  CYMIC #1 herbicidal effect (growth inhibition grade): 5 (Growth inhibition effect is equal to or greater than 90%, or complete withering is achieved)
Monochoria vaginalis
  MONVA #1 herbicidal effect (growth inhibition grade): 5 (Growth inhibition effect is equal to or greater than 90%, or complete withering is achieved)
Scirpus juncoides
  SCIJU #1 herbicidal effect (growth inhibition grade): 5 (Growth inhibition effect is equal to or greater than 90%, or complete withering is achieved)
[2]
  ECHDG #1 herbicidal effect (growth inhibition grade): 5 (Growth inhibition effect is equal to or greater than 90%, or complete withering is achieved)

## CCOc1cc(C)ccc1CS(=O)(=O)c1ncc(Cl)s1 [Compound 1C-13]
[1]
  ECHDG (2-2.5L) #2 herbicidal effect (growth inhibition grade): 5 (Growth inhibition effect is equal to or greater than 90%, or complete withering is achieved)
Cyperus microiria
  CYMIC #1 herbicidal effect (growth inhibition grade): 5 (Growth inhibition effect is equal to or greater than 90%, or complete withering is achieved)
Scirpus juncoides
  SCIJU #1 herbicidal effect (growth inhibition grade): 5 (Growth inhibition effect is equal to or greater than 90%, or complete withering is achieved)
[2]
  ECHDG #1 herbicidal effect (growth inhibition grade): 5 (Growth inhibition effect is equal to or greater than 90%, or complete withering is achieved)

## CCOc1c(Cl)cc(CS(=O)(=O)c2ncc(Cl)s2)cc1Cl [Compound 1C-106]
[1]
  ECHDG (2-2.5L) #2 herbicidal effect (growth inhibition grade): 3 (Growth inhibition effect equal to or greater than 50%, and less than 70%)
Cyperus microiria
  CYMIC #1 herbicidal effect (growth inhibition grade): 5 (Growth inhibition effect is equal to or greater than 90%, or complete withering is achieved)
Scirpus juncoides
  SCIJU #1 herbicidal effect (growth inhibition grade): 5 (Growth inhibition effect is equal to or greater than 90%, or complete withering is achieved)
[2]
  ECHDG #1 herbicidal effect (growth inhibition grade): 5 (Growth inhibition effect is equal to or greater than 90%, or complete withering is achieved)

## CCOc1ccc(Cl)c(CS(=O)(=O)c2ncc(Cl)s2)c1 [Compound 1C-80]
[1]
  ECHDG (2-2.5L) #2 herbicidal effect (growth inhibition grade): 5 (Growth inhibition effect is equal to or greater than 90%, or complete withering is achieved)
Cyperus microiria
  CYMIC #1 herbicidal effect (growth inhibition grade): 5 (Growth inhibition effect is equal to or greater than 90%, or complete withering is achieved)
Scirpus juncoides
  SCIJU #1 herbicidal effect (growth inhibition grade): 5 (Growth inhibition effect is equal to or greater than 90%, or complete withering is achieved)
[2]
  ECHDG #1 herbicidal effect (growth inhibition grade): 5 (Growth inhibition effect is equal to or greater than 90%, or complete withering is achieved)

## CCOc1c(C)cc(CS(=O)(=O)c2ncc(Cl)s2)cc1C [Compound 1C-107]
[1]
  ECHDG (2-2.5L) #2 herbicidal effect (growth inhibition grade): 4 (Growth inhibition effect is equal to or greater than 70%, and less than 90%)
Cyperus microiria
  CYMIC #1 herbicidal effect (growth inhibition grade): 5 (Growth inhibition effect is equal to or greater than 90%, or complete withering is achieved)
Scirpus juncoides
  SCIJU #1 herbicidal effect (growth inhibition grade): 5 (Growth inhibition effect is equal to or greater than 90%, or complete withering is achieved)
[2]
  ECHDG #1 herbicidal effect (growth inhibition grade): 5 (Growth inhibition effect is equal to or greater than 90%, or complete withering is achieved)

## CCOc1ccc(CS(=O)(=O)c2ncc(Cl)s2)c(Cl)c1 [Compound 1C-92]
[1]
  ECHDG (2-2.5L) #2 herbicidal effect (growth inhibition grade): 5 (Growth inhibition effect is equal to or greater than 90%, or complete withering is achieved)
Cyperus microiria
  CYMIC #1 herbicidal effect (growth inhibition grade): 5 (Growth inhibition effect is equal to or greater than 90%, or complete withering is achieved)
Scirpus juncoides
  SCIJU #1 herbicidal effect (growth inhibition grade): 5 (Growth inhibition effect is equal to or greater than 90%, or complete withering is achieved)
[2]
  ECHDG #1 herbicidal effect (growth inhibition grade): 5 (Growth inhibition effect is equal to or greater than 90%, or complete withering is achieved)

## CCOc1c(F)c(F)c(CS(=O)(=O)c2ncc(Cl)s2)c(F)c1F [Compound 1C-108]
[1]
  ECHDG (2-2.5L) #2 herbicidal effect (growth inhibition grade): 5 (Growth inhibition effect is equal to or greater than 90%, or complete withering is achieved)
Cyperus microiria
  CYMIC #1 herbicidal effect (growth inhibition grade): 5 (Growth inhibition effect is equal to or greater than 90%, or complete withering is achieved)
Scirpus juncoides
  SCIJU #1 herbicidal effect (growth inhibition grade): 5 (Growth inhibition effect is equal to or greater than 90%, or complete withering is achieved)
[2]
  ECHDG #1 herbicidal effect (growth inhibition grade): 5 (Growth inhibition effect is equal to or greater than 90%, or complete withering is achieved)

## CCCOc1cc(F)c(CS(=O)(=O)c2ncc(Cl)s2)c(F)c1 [Compound 1C-109]
[1]
  ECHDG (2-2.5L) #2 herbicidal effect (growth inhibition grade): 4 (Growth inhibition effect is equal to or greater than 70%, and less than 90%)
Cyperus microiria
  CYMIC #1 herbicidal effect (growth inhibition grade): 5 (Growth inhibition effect is equal to or greater than 90%, or complete withering is achieved)
Scirpus juncoides
  SCIJU #1 herbicidal effect (growth inhibition grade): 5 (Growth inhibition effect is equal to or greater than 90%, or complete withering is achieved)
[2]
  ECHDG #1 herbicidal effect (growth inhibition grade): 5 (Growth inhibition effect is equal to or greater than 90%, or complete withering is achieved)
